# Assay results reported in patent publication US7056948B2, “Use of odor reducing and cross-adapting agents to reduce animal waste malodors” (Monell Chemical Senses Center, priority 2000, dated 2006).
# Tests used:
# [1] = Initial olfactory evaluation by judges of swine slurry treated with a single odor-reducing or cross-adapting agent; conditions: initial olfactory evaluations by several judges; 1-10% by weight
# From the text: We attempted amelioration of odor from swine slurry. Swine slurry is a highly malodorous aqueous mixture of pig feces, urine, body secretions and spent feed. Each concentration was mixed with 1 gm of untreated swine slurry. Untreated swine slurry served as a control.
# [2] = cited from earlier work
Substance,suppression of the stronger malodor notes in swine slurry [1],"reduction in malodor in patients with urinary and fecal incontinence ([2]; 100-200 mg doses, after the first week of treatment)",dosages safely used ([2]; Chernomorsky et al.),"control of malodors in colostomy patients ([2]; oral, 100-200 mg daily)","side effects in colostomy patients ([2]; oral, 100-200 mg daily)"
bismuth subgallate [BiG],appeared to suppress the stronger malodor notes,–,–,–,–
chlorophyllin copper complex [CCC],appeared to suppress the stronger malodor notes,marked reduction in malodor,up to 800 mg/day,sufficient to control malodors,without undesirable side effects
